In the kinase profiling compilation of Christmann-Franck et al. (2016):
“And” between values parts separate entries of the source, which are not always exact repeats. Equal entries are not always repeated.

Experiments:
Experiment in all cases: radiometric filter-binding kinase assay, Kinase HotSpot
Conditions in all cases: compound 0.5 µM; ATP 10 µM
[1] = molecular target: STK33 (human) (UniProt Q9BYT3)
[2] = molecular target: CDK9 CCNK (human) (UniProt O75909+P50750)
[3] = molecular target: MAPK11 (human) (UniProt Q15759)
[4] = molecular target: PNCK (human) (UniProt Q6P2M8)
[5] = molecular target: DYRK1B (human) (UniProt Q9Y463)
[6] = molecular target: MST1R (human) (UniProt Q04912)
[7] = molecular target: PRKCD (human) (UniProt Q05655)
[8] = molecular target: CSNK1E (human) (UniProt P49674)
[9] = molecular target: VRK1 (human) (UniProt Q99986)
[10] = molecular target: CAMK1 (human) (UniProt Q14012)
[11] = molecular target: CSK (human) (UniProt P41240)
[12] = molecular target: DYRK1A (human) (UniProt Q13627)
[13] = molecular target: CDK3 CCNE1 (human) (UniProt Q00526+P24864)
[14] = molecular target: CSNK2A2 (human) (UniProt P19784)
[15] = molecular target: MAP2K2 (human) (UniProt P36507)
[16] = molecular target: EPHA3 (human) (UniProt P29320)
[17] = molecular target: CSNK1G1 (human) (UniProt Q9HCP0)
[18] = molecular target: PRKCH (human) (UniProt P24723)
[19] = molecular target: BMX (human) (UniProt P51813)
[20] = molecular target: GRK6 (human) (UniProt P43250)
[21] = molecular target: BRSK1 (human) (UniProt Q8TDC3)
[22] = molecular target: FLT1 (human) (UniProt P17948)
[23] = molecular target: GRK5 (human) (UniProt P34947)
[24] = molecular target: INSR (human) (UniProt P06213)
[25] = molecular target: NEK11 (human) (UniProt Q8NG66)
[26] = molecular target: MLTK (human) (UniProt Q9NYL2)
[27] = molecular target: HIPK3 (human) (UniProt Q9H422)
[28] = molecular target: MAP3K5 (human) (UniProt Q99683)
[29] = molecular target: DYRK2 (human) (UniProt Q92630)
[30] = molecular target: RPS6KA2 KD1 KD2 (human) (UniProt Q15349)
[31] = molecular target: MAPK9 (human) (UniProt P45984)
[32] = molecular target: AURKC (human) (UniProt Q9UQB9)
[33] = molecular target: MYLK2 (human) (UniProt Q9H1R3)
[34] = molecular target: NEK1 (human) (UniProt Q96PY6)
[35] = molecular target: EPHB1 (human) (UniProt P54762)
[36] = molecular target: EPHA1 (human) (UniProt P21709)
[37] = molecular target: FGR (human) (UniProt P09769)
[38] = molecular target: SGK2 (human) (UniProt Q9HBY8)
[39] = molecular target: TXK (human) (UniProt P42681)
[40] = molecular target: PRKG1 (human) (UniProt Q13976)
[41] = molecular target: CDK2 CCNA2 (human) (UniProt P24941+P20248)
[42] = molecular target: JAK2 JH1 JH2 (human) (UniProt O60674)

Chain of FLT1 (human) (P17948 whole entry, looked up): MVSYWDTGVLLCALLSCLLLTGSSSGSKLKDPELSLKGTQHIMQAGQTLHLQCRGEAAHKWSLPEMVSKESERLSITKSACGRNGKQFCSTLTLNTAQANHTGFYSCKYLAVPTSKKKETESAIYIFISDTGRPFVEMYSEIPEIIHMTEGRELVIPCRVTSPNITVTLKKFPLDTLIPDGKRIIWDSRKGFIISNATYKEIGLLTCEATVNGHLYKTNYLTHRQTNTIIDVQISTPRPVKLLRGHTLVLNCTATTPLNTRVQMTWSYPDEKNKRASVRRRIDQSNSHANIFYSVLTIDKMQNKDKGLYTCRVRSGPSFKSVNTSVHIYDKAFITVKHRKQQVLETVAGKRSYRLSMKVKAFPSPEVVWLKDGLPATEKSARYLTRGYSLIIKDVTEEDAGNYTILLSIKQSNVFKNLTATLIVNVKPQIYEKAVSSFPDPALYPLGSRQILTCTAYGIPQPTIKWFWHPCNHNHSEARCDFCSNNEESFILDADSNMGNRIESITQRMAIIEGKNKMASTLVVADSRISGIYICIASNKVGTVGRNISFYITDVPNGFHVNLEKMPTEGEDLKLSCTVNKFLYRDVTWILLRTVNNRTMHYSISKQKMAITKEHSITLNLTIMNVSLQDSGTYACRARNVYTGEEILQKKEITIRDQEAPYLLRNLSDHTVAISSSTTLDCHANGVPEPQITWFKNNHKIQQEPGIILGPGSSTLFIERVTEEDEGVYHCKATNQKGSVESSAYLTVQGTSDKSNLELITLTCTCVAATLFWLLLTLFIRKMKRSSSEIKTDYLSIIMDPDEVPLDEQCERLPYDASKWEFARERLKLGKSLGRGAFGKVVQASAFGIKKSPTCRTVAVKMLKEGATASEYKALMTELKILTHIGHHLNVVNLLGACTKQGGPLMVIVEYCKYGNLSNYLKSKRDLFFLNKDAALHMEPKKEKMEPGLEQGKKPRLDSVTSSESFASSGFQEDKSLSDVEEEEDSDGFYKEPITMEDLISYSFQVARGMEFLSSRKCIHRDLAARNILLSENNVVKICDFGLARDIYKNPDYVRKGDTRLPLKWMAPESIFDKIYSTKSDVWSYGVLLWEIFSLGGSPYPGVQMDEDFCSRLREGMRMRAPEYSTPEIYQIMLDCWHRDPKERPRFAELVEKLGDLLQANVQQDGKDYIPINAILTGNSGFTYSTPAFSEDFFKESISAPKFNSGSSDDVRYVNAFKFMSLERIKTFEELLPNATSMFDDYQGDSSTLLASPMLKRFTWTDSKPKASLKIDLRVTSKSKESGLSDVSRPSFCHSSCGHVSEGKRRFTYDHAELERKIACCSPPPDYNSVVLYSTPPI
Chain of GRK5 (human) (P34947 whole entry, looked up): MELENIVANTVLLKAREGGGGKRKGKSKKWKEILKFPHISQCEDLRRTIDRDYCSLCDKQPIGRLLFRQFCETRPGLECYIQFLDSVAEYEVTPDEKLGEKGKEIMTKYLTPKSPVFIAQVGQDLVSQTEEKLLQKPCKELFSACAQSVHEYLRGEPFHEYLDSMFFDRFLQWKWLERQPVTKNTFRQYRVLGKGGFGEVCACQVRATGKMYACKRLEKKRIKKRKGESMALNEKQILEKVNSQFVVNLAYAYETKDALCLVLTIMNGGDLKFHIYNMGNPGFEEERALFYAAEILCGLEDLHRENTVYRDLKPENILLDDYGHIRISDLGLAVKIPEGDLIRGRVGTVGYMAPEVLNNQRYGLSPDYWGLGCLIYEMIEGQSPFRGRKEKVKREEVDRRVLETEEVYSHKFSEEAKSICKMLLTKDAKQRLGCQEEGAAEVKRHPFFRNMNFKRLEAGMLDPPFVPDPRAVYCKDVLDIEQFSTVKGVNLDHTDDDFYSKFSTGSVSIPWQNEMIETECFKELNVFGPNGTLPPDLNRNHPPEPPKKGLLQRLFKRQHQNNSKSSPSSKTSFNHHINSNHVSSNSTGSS
Chain of FGR (human) (P09769 whole entry, looked up): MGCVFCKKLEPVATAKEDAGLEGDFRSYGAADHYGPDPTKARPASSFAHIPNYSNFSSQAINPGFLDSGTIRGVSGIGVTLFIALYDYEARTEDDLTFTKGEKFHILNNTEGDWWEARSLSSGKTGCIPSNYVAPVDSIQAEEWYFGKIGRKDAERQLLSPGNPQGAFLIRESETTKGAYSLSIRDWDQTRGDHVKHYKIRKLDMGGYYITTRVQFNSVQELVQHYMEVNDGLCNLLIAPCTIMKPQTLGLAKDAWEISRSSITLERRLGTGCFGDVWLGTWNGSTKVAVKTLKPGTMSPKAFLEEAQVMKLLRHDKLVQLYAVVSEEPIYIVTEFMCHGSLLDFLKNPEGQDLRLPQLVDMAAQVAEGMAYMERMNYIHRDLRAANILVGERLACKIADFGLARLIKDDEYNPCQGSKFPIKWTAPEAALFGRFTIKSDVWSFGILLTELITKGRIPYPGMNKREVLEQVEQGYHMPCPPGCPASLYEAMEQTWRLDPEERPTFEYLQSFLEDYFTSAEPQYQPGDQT
Chain of VRK1 (human) (Q99986 whole entry, looked up): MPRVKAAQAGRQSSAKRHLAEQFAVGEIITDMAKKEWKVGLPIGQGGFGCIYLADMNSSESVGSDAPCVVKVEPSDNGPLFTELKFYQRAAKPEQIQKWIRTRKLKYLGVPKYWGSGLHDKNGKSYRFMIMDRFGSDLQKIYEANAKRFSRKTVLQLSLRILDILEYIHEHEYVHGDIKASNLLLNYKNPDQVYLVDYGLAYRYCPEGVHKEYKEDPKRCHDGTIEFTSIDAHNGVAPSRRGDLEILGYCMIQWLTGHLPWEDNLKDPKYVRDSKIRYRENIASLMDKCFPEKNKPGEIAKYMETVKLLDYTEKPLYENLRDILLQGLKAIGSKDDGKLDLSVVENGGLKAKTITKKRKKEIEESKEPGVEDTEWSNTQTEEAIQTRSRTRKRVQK
Chain of RPS6KA2 KD1 KD2 (human) (Q15349 whole entry, looked up): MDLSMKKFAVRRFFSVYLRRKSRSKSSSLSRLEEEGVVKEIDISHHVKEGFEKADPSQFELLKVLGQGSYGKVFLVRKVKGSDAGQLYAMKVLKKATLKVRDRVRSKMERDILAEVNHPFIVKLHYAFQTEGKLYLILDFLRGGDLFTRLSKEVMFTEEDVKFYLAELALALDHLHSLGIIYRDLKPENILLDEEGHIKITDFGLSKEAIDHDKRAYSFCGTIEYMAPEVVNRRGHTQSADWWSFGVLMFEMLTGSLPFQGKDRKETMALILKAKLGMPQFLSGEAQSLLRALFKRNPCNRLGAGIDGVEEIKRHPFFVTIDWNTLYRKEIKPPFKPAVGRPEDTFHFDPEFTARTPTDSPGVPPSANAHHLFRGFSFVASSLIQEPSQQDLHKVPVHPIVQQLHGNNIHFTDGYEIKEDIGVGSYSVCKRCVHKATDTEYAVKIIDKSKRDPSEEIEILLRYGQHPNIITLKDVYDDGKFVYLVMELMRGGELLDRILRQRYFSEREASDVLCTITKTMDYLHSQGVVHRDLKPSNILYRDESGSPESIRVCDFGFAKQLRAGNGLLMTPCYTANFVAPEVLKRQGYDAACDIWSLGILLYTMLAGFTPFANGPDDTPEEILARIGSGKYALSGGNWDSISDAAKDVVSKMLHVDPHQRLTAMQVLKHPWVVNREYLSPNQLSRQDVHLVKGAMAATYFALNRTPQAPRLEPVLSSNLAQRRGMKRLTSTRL
Chain of MAP3K5 (human) (Q99683 whole entry, looked up): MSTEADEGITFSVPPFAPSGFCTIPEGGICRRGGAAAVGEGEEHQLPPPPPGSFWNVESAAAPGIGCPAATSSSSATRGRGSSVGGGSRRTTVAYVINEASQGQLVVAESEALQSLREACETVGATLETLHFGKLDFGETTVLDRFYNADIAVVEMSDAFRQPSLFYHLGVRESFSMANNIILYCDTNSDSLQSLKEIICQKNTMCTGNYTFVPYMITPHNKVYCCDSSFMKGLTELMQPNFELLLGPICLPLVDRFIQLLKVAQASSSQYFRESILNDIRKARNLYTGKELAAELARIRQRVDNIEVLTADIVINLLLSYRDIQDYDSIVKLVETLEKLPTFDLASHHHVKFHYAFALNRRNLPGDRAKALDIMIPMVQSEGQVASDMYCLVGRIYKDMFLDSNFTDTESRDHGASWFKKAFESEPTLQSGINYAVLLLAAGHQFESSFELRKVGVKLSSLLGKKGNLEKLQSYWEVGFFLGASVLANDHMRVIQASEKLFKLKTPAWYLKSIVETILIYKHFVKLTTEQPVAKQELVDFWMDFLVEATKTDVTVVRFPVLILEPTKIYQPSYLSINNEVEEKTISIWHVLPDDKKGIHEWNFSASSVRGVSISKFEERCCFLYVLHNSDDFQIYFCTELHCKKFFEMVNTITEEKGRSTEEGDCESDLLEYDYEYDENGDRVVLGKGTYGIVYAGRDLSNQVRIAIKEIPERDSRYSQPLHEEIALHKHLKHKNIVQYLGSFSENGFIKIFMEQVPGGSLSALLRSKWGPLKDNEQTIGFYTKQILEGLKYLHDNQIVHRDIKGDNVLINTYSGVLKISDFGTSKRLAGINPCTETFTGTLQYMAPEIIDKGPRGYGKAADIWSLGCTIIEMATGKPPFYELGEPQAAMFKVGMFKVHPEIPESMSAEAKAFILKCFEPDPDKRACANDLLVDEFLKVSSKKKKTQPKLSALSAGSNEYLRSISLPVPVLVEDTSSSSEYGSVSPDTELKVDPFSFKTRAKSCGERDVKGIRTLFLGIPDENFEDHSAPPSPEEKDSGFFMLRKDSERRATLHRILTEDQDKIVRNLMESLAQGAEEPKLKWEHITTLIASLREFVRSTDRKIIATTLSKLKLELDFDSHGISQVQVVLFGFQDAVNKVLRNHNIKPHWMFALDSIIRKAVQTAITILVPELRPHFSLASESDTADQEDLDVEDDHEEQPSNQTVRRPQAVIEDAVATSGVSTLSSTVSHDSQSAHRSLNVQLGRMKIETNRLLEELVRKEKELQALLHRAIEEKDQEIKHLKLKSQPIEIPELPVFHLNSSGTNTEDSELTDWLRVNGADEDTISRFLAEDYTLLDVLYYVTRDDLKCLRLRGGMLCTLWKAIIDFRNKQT

C[C@@H]1CCN(C(=O)CC#N)C[C@@H]1N(C)c1ncnc2[nH]ccc12
residual activity [1]: 97.8%
residual activity [2]: 102%
residual activity [3]: 103%
residual activity [4]: 104%
residual activity [5]: 97%
residual activity [6]: 102%
residual activity [7]: 75.3%
residual activity [8]: 101%
residual activity [9]: 100%
residual activity [10]: 99.3%
residual activity [11]: 101%
residual activity [12]: 102%
residual activity [13]: 92.3%
residual activity [14]: 96.6%
residual activity [15]: 117%
residual activity [16]: 94.1%
residual activity [17]: 101%
residual activity [18]: 100%
residual activity [19]: 111%
residual activity [20]: 101%
residual activity [21]: 102%
residual activity [22]: 101%
residual activity [23]: 107%
residual activity [24]: 101%
residual activity [25]: 91.7%
residual activity [26]: 98.2%
residual activity [27]: 100%
residual activity [28]: 97.8%
residual activity [29]: 112%
residual activity [30]: 89.7%
residual activity [31]: 112%
residual activity [32]: 85.3%
residual activity [33]: 99%
residual activity [34]: 84.6%
residual activity [35]: 106%
residual activity [36]: 98%
residual activity [37]: 91.1%
residual activity [38]: 104%
residual activity [39]: 98.4%
residual activity [40]: 82% and 87.8%
residual activity [41]: 89.5%

COc1cc(Nc2c(C#N)cnc3cc(OCCCN4CCN(C)CC4)c(OC)cc23)c(Cl)cc1Cl
residual activity [1]: 63.5%
residual activity [2]: 102%
residual activity [3]: 101%
residual activity [4]: 109%
residual activity [5]: 97%
residual activity [7]: 40.3%
residual activity [8]: 11.4%
residual activity [9]: 100%
residual activity [10]: 68.9%
residual activity [11]: 12.3%
residual activity [42]: 97.4%
residual activity [12]: 99.4%
residual activity [13]: 91.9%
residual activity [14]: 108%
residual activity [16]: 31.7%
residual activity [17]: 95.7%
residual activity [18]: 102%
residual activity [20]: 99.5%
residual activity [21]: 97.5%
residual activity [22]: 44.5%
residual activity [23]: 109%
residual activity [24]: 69.8%
residual activity [27]: 93.5%
residual activity [28]: 95.7%
residual activity [29]: 104%
residual activity [30]: 44.2%
residual activity [32]: 82.1%
residual activity [33]: 32.1%
residual activity [34]: 15.2%
residual activity [35]: 11.8%
residual activity [36]: 97.7%
residual activity [37]: 11.5%
residual activity [38]: 103%
residual activity [39]: 27.5%
residual activity [40]: 85.5% and 94.9%
residual activity [41]: 91.1%

CO[C@@H]1[C@H](N(C)C(=O)c2ccccc2)C[C@H]2O[C@]1(C)n1c3ccccc3c3c4c(c5c6ccccc6n2c5c31)C(=O)NC4
residual activity [1]: 46.4%
residual activity [2]: 71%
residual activity [3]: 97.6%
residual activity [4]: 92.9%
residual activity [5]: 35.6%
residual activity [6]: 101%
residual activity [7]: 10.9%
residual activity [9]: 90.8%
residual activity [11]: 55.1%
residual activity [42]: 8.94%
residual activity [13]: 81.9%
residual activity [14]: 87.8%
residual activity [17]: 103%
residual activity [18]: 20.4%
residual activity [19]: 32%
residual activity [22]: 37%
residual activity [23]: 93.3%
residual activity [24]: 106%
residual activity [26]: 94.2%
residual activity [27]: 93.3%
residual activity [28]: 101%
residual activity [29]: 108%
residual activity [30]: 3.06%
residual activity [31]: 82.7%
residual activity [32]: 12%
residual activity [34]: 66.2%
residual activity [36]: 93.5%
residual activity [37]: 17.4%
residual activity [38]: 99%
residual activity [39]: 71.7%
residual activity [40]: 18.8% and 8.37%
residual activity [41]: 66.6%
